Entries after “also recorded” stand apart in the source; their conditions may differ.
T1: C-reactive protein (CRP) (Homo sapiens, UniProt P02741)
T1 construct: purchased Biorbyt (UK)
T1 sequence (P02741 19-224): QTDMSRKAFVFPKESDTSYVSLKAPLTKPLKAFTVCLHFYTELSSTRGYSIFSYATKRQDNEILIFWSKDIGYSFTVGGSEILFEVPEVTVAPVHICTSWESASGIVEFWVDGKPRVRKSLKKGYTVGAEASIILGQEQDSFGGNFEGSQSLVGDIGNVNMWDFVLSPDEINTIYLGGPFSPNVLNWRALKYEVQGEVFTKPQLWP

T2: C-reactive protein (human, UniProt P02741 19-224)
T2 construct: C-reactive protein (CRP), cyclic pentamer of five identical, noncovalently connected subunits of 206 amino acids each (printed); PDB 3PVO was used only for docking; also called CRP
T2 sequence (looked up): T1 sequence (P02741 19-224)

B1: P9 clone (M13 phage exposing the P9 peptide) (other)
chain: SWFSDWDLELHA
notes: peptide exposed on the M13 phage clone P9; also called P9 phage; source: M13 bacteriophage clone from phage display; not shown: M13 bacteriophage (peptide exposed on the phage)
B2: P3 clone (M13 phage exposing the P3 peptide) (other)
chain: VHWDFRQWWQPS
notes: peptide exposed on the M13 phage clone P3; the library is described in the Supporting Information; also called P3 phage; source: M13 bacteriophage clone from phage display; not shown: M13 bacteriophage (peptide exposed on the phage)
B3: P3 peptide (peptide)
peptide: VHWDFRQWWQPS
notes: 12-mer identified by phage display against CRP; immobilised on gold plates for PM-IRRAS, whose method is in the Supporting Information; also called peptide P3; source: synthetic peptide
B4: P2 peptide (peptide)
peptide: GGSDPEGMQGNY
notes: 12-mer identified by phage display against CRP; Immobilised on gold plates for PM-IRRAS; method is in the Supporting Information; also called peptide P2; source: synthetic peptide

Tests used:
C-reactive protein (CRP) = target: T1, C-reactive protein (CRP); assay: PM-IRRAS of protein-peptide complex on gold; format: binding; settings: complex immobilized on gold; peptide 100 μg mL-1, CRP 50 μg mL-1 in PBS
Description: (§1) 2.2. PM-IRRS analysis (polarisation modulation infrared reflection absorption
(§2) Three types o f samples were prepared and analysed: (a) peptide solution in PBS (100 μg mL-1), (b)
(§3) CRP solution in PBS (50 μg mL-1), and (c) protein -peptide complex. The complex was prepared

[1] = PM-IRRAS of peptide layers on gold; format: physicochemical; settings: for secondary structure on gold (in words): amide I band, peptide 100 μg mL-1 in PBS
Description: as §1, §2, §3

[2] = TEM analysis of peptide fibers; format: physicochemical; settings: 1 mg mL-1 in PBS
Description: 2. Surface characterisation
Suspensions of selected phages (10^9 pfu mL-1) in PBS and corresponding peptides (1 mg mL-1) in PBS were adsorbed onto carbon-coated copper grids (Sigma) for 3 min, stained with 1.5% uracyl acetate. The samples were photographed using Tecani Spirit BioTWIN microscope at 120kV, and images were processed by iTEM program. […]

C-reactive protein [3] = target: T2, C-reactive protein; assay: ELISA; phage clones on CRP, phages detected by the enzymatic reaction of tagged anti-M13 antibodies, absorbance at 450 nm, compared with WT phage
C-reactive protein [4] = target: T2, C-reactive protein; assay: differential pulse voltammetry (electrochemical); P3 peptide covalently immobilised on TESPSA-silanised ITO, blocked with 1% BSA; 20 uL protein in PBS pH 7.4 for 30 min at room temperature; 1 mM Fc(CH2OH)2 in PBS as redox probe; drop of peak current fitted with the Hill equation, Kd = KA^n; settings: both partners purified
C-reactive protein [5] = target: T2, C-reactive protein; assay: PM-IRRAS; peptides immobilised on gold plates; spectra of peptide, CRP and the protein-peptide complex compared; settings: both partners purified
[6] = immobilized on gold, assuming helical conformation

Molecule	peptide-CRP complex by PM-IRRAS (in words) (C-reactive protein (CRP))	secondary structure on gold (in words) [1]	fiber structure of peptide (in words) [2]	ELISA signal, fold over WT phage (C-reactive protein [3])	also measured
GGSDPEGMQGNY [P2]	the P2-CRP complex is formed, but the effect of the P2 on the CRP secondary structure is different compared to P9	higher amount of disordered structures in the secondary structure	loose fibers, which are unordered and without forming a specific structure		orientation of helix axis (in words) [1, 6]: nearly parallel to the gold surface; amide I band position ([1]; peptide immobilized on gold): 1674 cm–1
SWFSDWDLELHA [P9]	the secondary structure of the complex may be affected	presence of β-sheets; also recorded: contains β and α or disordered peptide chains	The fibers self-assemble into unique structures called twisted nanoribbons		angle between the helical axis and the surface [1, 6]: about 48 °
B1				16 fold	
B2				13 fold	
B3					Kd (C-reactive protein [4]): 35 ± 1.2 nM
B4					binding result (C-reactive protein [5]): binds

Source: PMC10535004, “Investigation of Peptides for Molecular Recognition of C-Reactive Protein–Theoretical and Experimental Studies” (Analytical Chemistry, 2023)
